Laboratory results taken from US20150150990A1, “ORAL PHARMACEUTICAL COMPOSITIONS IN A SOLID DISPERSION COMPRISING PREFERABLY POSACONAZOLE AND HPMCAs” (Merck Sharp & Dohme Corp., priority 2008, published 2015).
In brackets after ≈: the same amount, converted by molar mass.

Experiment: Solubility of posaconazole free base
Format: physicochemical
Method: The provision of a solid composition comprising posaconazole suitable for preparing a solid dosage form for oral administration has heretofore been hampered by the poor solubility and weak basicity of the posaconazole free-base compound. Posaconazole is soluble at low pH. For example, in the environment of the stomach (approximately pH 1) posaconazole free base has a solubility of approximately 0.8 mg/mL. However, when posaconazole dissolved in the stomach fluids reaches the environment of the intestines (typically less acidic than about pH 6.4) a substantial amount of the dissolved posaconazole precipitates, hindering absorption in the intestines. It has been determined that in environments where the pH is about pH 6.4 or more basic the solubility of posaconazole free base is less than about 1 microgram/mL.

CC[C@@H]([C@H](C)O)n1ncn(-c2ccc(N3CCN(c4ccc(OC[C@@H]5CO[C@@](Cn6cncn6)(c6ccc(F)cc6F)C5)cc4)CC3)cc2)c1=O [posaconazole free base, posaconazole]
solubility (pH 6.4, pH about 6.4 or more basic): < 1 µg/mL
solubility (simulated gastric fluid, environment of the stomach, approximately pH 1): ~800 µg/mL (≈ 1140 µM)
